For 3 compounds, MIC results are on record in patent US7820655B2, “Ethanol or 1,2-ethanediol cyclohexyl antibiotic derivatives” (Actelion Pharmaceuticals Ltd., priority 2006, dated 2010).

In brackets after ≈: the same amount, converted by molar mass.

Holding throughout (format): cell-based
The test system of one assay is S. aureus A798. Nature of the assay: MIC by broth microdilution (NCCLS), S. aureus A798. The conditions noted are these: Staphylococcus aureus, cation-adjusted Mueller-Hinton Broth, pH 7.2-7.3. The protocol: (§1) These assays have been performed following the description given in “Methods for dilution Antimicrobial Susceptibility Tests for Bacteria that Grow Aerobically, 4th ed.; Approved standard: NCCLS Document M7-A4; National Committee for Clinical Laboratory Standards Villanova, Pa., USA, 1997”. Minimal inhibitory concentrations (MICs; mg/l) were determined in cation-adjusted Mueller-Hinton Broth (BBL) by a microdilution method following NCCLS guidelines (National Committee for Clinical Laboratory Standards. Methods for Dilution Antimicrobial Susceptibility). The pH of the test medium was 7.2-7.3.
On the technique in general: Broth dilution looks for growth in wells or tubes with falling amounts of substance.

Another assay deals with M. catarrhalis A894. The assay is described as follows: MIC by broth microdilution (NCCLS), M. catarrhalis A894. The conditions noted are these: Moraxella catarrhalis, cation-adjusted Mueller-Hinton Broth, pH 7.2-7.3. The protocol: as §1
A further assay deals with S. Pneumoniae 49619. The assay is described as follows: MIC by broth microdilution (NCCLS), S. Pneumoniae 49619. The note with it: Streptococcus pneumoniae, cation-adjusted Mueller-Hinton Broth, pH 7.2-7.3. The protocol:
as §1

Turning to `COc1cnc2cccc([C@@H](O)[C@H](O)[C@H]3CC[C@H](NC/C=C/c4cc(F)ccc4F)CC3)c2n1` [Example 10, (1R,2R)-1-{trans-4-[(E)-3-(2,5-difluoro-phenyl)-allylamino]-cyclohexyl}-2-(3-methoxy-quinoxalin-5-yl)-ethane-1,2-diol], the results for the minimal inhibitory concentration (MIC) with S. aureus A798, in the assay on M. catarrhalis A894 and against S. Pneumoniae 49619 were at most 0.031 µg/mL, at most 0.031 µg/mL and 0.063 µg/mL (≈ 0.134 µM), respectively.
In the case of `COc1ccc2nccc([C@@H](O)[C@H](O)[C@H]3CC[C@H](NCc4ccc5c(n4)NC(=O)CS5)CC3)c2n1` [Example 3, 6-(trans-{4-[(1R,2R)-1,2-dihydroxy-2-(6-methoxy-[1,5]naphthyridin-4-yl)-ethyl]-cyclohexylamino}-methyl)-4H-pyrido[3,2-b][1,4]thiazin-3-one], the figures for the MIC in the assay with S. aureus A798, in the assay on M. catarrhalis A894 and in the assay on S. Pneumoniae 49619 were at most 0.031 µg/mL, at most 0.031 µg/mL and 0.063 µg/mL (≈ 0.127 µM), respectively.
As to `COc1ccc2nccc(C[C@@H](O)[C@H]3CC[C@H](NCc4ccc5c(n4)NC(=O)CO5)CC3)c2n1` [Example 12, 6-(trans{4-[1-(1R)-hydroxy-2-(6-methoxy-[1,5]naphthyridin-4-yl)-ethyl]-cyclohexylamino}-methyl)-4H-pyrido[3,2-b][1,4]oxazin-3-one], the minimum inhibitory concentration (MIC) (as a rule, the lowest concentration that inhibits growth of the organism) in the assay on S. aureus A798 stood at 0.063 µg/mL (≈ 0.136 µM); against M. catarrhalis A894, 0.031 µg/mL (≈ 0.0669 µM); against S. Pneumoniae 49619, 0.125 µg/mL (≈ 0.27 µM).
